Like-named read-outs stand apart in the source and are kept apart here.
Experiments:
Assay type in all cases: biochemical
CDK4/cyclin D3 = target: T1, CDK4/cyclin D3 (Homo sapiens, UniProt P11802); test: Human CDK4/cyclin D3 inhibitory activity (QS S Assist CDK4/Cyclin D3_FP Kit, IMAP fluorescence polarization)
T1 construct: purchased Carna Biosciences, Inc. QS S Assist CDK4/Cyclin D3_FP Kit
Summary of the method: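 IMAP fluorescence polarization kit: CDK4/cyclin D3 at 12.5-25 ng/well with kit ATP/substrate/metal mix in 20 mM HEPES pH 7.4, 0.01% Tween20, 2 mM DTT, 45 min at room temperature. FP read at 485/535 nm after 30 min binding; IC50 from dose-response fit of percent inhibition versus enzyme and no-enzyme controls.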

CDK2/cyclin A2 = target: T2, CDK2/cyclin A2 (Homo sapiens, UniProt P24941); test: Human CDK2/cyclin A2 inhibitory activity (QS S Assist CDK2/Cyclin A2_FP Kit, IMAP fluorescence polarization)
T2 construct: purchased Carna Biosciences, Inc. QS S Assist CDK2/Cyclin A2_FP Kit
Summary of the method: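 Kinase activity read as fluorescence polarization (485/535 nm) after phosphorylated fluorescent substrate binds IMAP reagent (30 min, RT, dark). Enzyme (2.5 ng/well) reacted 60 min at RT with ATP/substrate/metal in HEPES pH 7.4 buffer with Tween 20 and DTT; no-enzyme wells define 0% activity; IC50 by curve fit.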

CDK6/cyclin D3 = CDK6/cyclin D3 (Homo sapiens, UniProt Q00534); test: Human CDK6/cyclin D3 inhibitory activity (off-chip mobility shift assay); settings: 50% inhibitory concentration against CDK6/cyclin D3; 300 μM ATP, room temperature, five hours; read-out: CDK6 Activity Symbol
CDK6/cyclin D3, sequence (Q00534 whole entry): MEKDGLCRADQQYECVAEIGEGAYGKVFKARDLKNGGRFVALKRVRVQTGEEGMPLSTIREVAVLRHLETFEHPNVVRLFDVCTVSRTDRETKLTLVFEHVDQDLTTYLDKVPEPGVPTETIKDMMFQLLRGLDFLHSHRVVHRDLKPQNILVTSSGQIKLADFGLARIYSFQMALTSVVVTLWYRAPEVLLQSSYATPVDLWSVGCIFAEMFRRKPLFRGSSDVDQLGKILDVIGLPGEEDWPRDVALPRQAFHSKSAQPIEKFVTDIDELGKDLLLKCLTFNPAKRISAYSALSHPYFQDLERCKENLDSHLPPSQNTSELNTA
CDK6/cyclin D3, sequence (P30281 whole entry partner): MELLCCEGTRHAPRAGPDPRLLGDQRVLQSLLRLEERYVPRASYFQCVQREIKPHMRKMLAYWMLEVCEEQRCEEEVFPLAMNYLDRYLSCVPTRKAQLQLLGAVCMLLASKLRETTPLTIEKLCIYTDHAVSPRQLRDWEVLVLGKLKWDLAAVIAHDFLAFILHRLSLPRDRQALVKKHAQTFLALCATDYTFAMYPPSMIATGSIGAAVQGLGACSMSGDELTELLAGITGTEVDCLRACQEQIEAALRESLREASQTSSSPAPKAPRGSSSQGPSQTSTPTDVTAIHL
Experimental: Human CDK6/Cyclin D3 Inhibitory Activity
CDK6/cyclin D3 inhibitory activity was determined by the off-chip mobility shift assay (MSA). The MSA separates proteins from one another on the basis of a difference in electrophoretic mobility depending on the molecular weight or electric charge of the proteins. The kinase activity is determined by quantifying the degree of phosphorylation through electrophoretic analysis of a positive to negative change in electric charge of the substrate phosphorylated by the kinase.
Each solution was prepared with an assay buffer containing 20 mM HEPES (pH 7.5), 0.01% Triton X-100, and 2 mM dithiothreitol. A test compound solution was prepared by dilution of the test compound with dimethyl sulfoxide (DMSO) to a concentration 100 times higher than the final concentration and then 25-fold dilution with the assay buffer to a concentration four times higher than the final concentration. An ATP/substrate/metal solution was prepared to have a concentration four times higher than the final concentration. An enzyme solution was prepared to have a concentration twice higher than the final concentration. The final enzyme concentration was adjusted to an appropriate level on the basis of the enzyme activity signal and the inhibitory activity of a positive control compound.
The test compound solution (5 μL/well) and the ATP/substrate/metal solution (5 μL/well) were added to a 384-well plate, and the enzyme solution or the assay buffer (10 μL/well) was added to the plate (total amount of the reaction mixture: 20 μL/well) for initiation of enzymatic reaction. […] The reaction was performed at room temperature for five hours, and a termination buffer (QuickScout Screening Assist MSA, manufactured by Carna Biosciences, Inc.) (60 μL/well) was then added to the plate for termination of the reaction. Subsequently, the substrate peptide and the phosphorylated peptide in the reaction mixture were separated from each other and quantified with LabChip 3000 (manufactured by Caliper Lifesciences). The kinase reaction was evaluated by the product ratio (P/(P+S)) calculated from the peak height (S) of the substrate peptide and the peak height (P) of the phosphorylated peptide.
The percent inhibition of enzyme activity was calculated for each test compound (note: enzyme activity=100% in the case of addition of the enzyme solution and addition of DMSO instead of the test compound solution, whereas enzyme activity=0% in the case of addition of the assay buffer instead of the enzyme solution and addition of DMSO instead of the test compound solution). The percent inhibition of enzyme activity was fitted to a dose-response curve, to determine a 50% inhibitory concentration against CDK6/cyclin D3.
In each table, “+++” corresponds to IC50<10 nM, “++” 10 nM≤IC50<100 nM, and “+” 100 nM≤IC50.

[1] = 50% inhibitory concentration against CDK4/cyclin D3, given as class symbol
[2] = 50% inhibitory concentration against CDK2/cyclin A2, given as class symbol
[3] = Human CDK4/cyclin D3 inhibitory activity, read-out: CDK4 Activity symbol
[4] = Human CDK2/cyclin A2 inhibitory activity, read-out: CDK2 Activity symbol

T1 sequence (P11802 whole entry): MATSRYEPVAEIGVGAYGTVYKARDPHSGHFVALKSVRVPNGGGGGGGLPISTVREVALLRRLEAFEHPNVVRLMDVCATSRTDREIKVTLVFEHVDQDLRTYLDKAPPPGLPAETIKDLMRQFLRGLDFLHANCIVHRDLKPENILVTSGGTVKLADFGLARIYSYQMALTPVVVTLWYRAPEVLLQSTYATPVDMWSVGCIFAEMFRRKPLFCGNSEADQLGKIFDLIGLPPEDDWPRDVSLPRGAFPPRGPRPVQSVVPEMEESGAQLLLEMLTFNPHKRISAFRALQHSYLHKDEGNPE
T1 sequence (P30281 whole entry partner): as the sequence (P30281 whole entry partner) above

SMILES | IC50 (CDK4/cyclin D3; [1]) [nM] | IC50 (CDK2/cyclin A2; [2]) [nM] | IC50 (CDK6/cyclin D3) [nM] | IC50 (CDK4/cyclin D3; [3]) [nM] | IC50 (CDK2/cyclin A2; [4]) [nM]
c1cc(Nc2ncc3cc(C4CCOC4)nc(N[C@H]4CCCOC4)c3n2)ncc1CN1CCNCC1 (single isomer, unassigned) [Compound 941] | < 10 | ≥ 100 | < 10 | – | –
C[C@@H](O)c1cc2cnc(Nc3ccc4c(n3)CCNC4)nc2c(N[C@H]2CCCOC2)n1 [Compound 778] | < 10 | ≥ 100 | 10 to 100 | – | –
CC(C)Nc1nc([C@@H](C)O)cc2cnc(Nc3ccc(N4CCNCC4=O)cn3)nc12 [Compound 230] | – | – | < 10 | < 10 | ≥ 100
CC(C)Nc1nc([C@@H](C)O)cc2cnc(Nc3ccc(N4CCNCC4)cn3)nc12 [Compound 16] | – | – | < 10 | < 10 | ≥ 100
CC(C)Nc1nc([C@@H](C)O)cc2cnc(Nc3ccc4c(n3)CCN(CCN(C)C)C4)nc12 [Compound 954] | < 10 | ≥ 100 | < 10 | – | –
CCCNc1nc([C@@H](C)O)cc2cnc(Nc3ccc(CN4CCN(CCO)CC4)cn3)nc12 [Compound 844] | < 10 | ≥ 100 | < 10 | – | –
CO[C@H](C)c1cc2cnc(Nc3ccc(CN4CCNCC4)cn3)nc2c(N[C@H]2CCCOC2)n1 [Compound 300] | – | – | 10 to 100 | < 10 | ≥ 100
CC(C)Nc1nc([C@@H](C)O)cc2cnc(Nc3ccc4c(n3)CCN(CCO)C4)nc12 [Compound 929] | < 10 | ≥ 100 | < 10 | – | –
COCC(C)(C)Nc1nc([C@@H](C)O)cc2cnc(Nc3ccc(CN4CCNCC4)cn3)nc12 [Compound 221] | – | – | 10 to 100 | < 10 | ≥ 100
CC(C)Nc1nc(C(F)F)cc2cnc(Nc3ccc(N4CCNCC4)cn3)nc12 [Compound 3, 6-difluoromethyl-8-isopropyl-2-(5-piperazin-1-ylpyridin-2-yl)pyrido[3,4-d]pyrimidine-2,8-diamine] | – | – | < 10 | – | –
CCCNc1nc([C@@H](C)OC)cc2cnc(Nc3ccc(N4CCNCC4)nn3)nc12 [Compound 819] | < 10 | ≥ 100 | 10 to 100 | – | –
CO[C@H](C)c1cc2cnc(Nc3ccc(N4CCNCC4)nn3)nc2c(N[C@H]2CCCOC2)n1 [Compound 304] | – | – | 10 to 100 | < 10 | ≥ 100
CC(C)N(C)c1nc([C@@H](C)O)cc2cnc(Nc3ccc(N4CCNCCC4=O)cn3)nc12 [Compound 904] | < 10 | ≥ 100 | < 10 | – | –
Cc1nc(Nc2ncc3cc([C@@H](C)O)nc(NC(C)C)c3n2)ccc1N1CCNCC1=O [Compound 749] | < 10 | ≥ 100 | 10 to 100 | – | –
CCCNc1nc([C@@H](C)OC)cc2cnc(Nc3ccc(CN4CCNCC4)cn3)nc12 [Compound 818] | < 10 | ≥ 100 | 10 to 100 | – | –
CC(C)Nc1nc(C2(C)COC2)cc2cnc(Nc3ccc(CN4CCNCC4)cn3)nc12 [Compound 883] | < 10 | ≥ 100 | < 10 | – | –
CO[C@H](C)c1cc2cnc(Nc3ccc(CN4CCNCC4)cn3)nc2c(NC(C)C)n1 [Compound 220] | – | – | 10 to 100 | < 10 | ≥ 100
CC(C)Nc1nc(C2CCCO2)cc2cnc(Nc3ccc(N4CCNCC4=O)cn3)nc12 (single isomer, unassigned) [Compound 672] | < 10 | ≥ 100 | 10 to 100 | – | –
CC(C)Nc1nc(C2(C)COC2)cc2cnc(Nc3ccc(N4CCNCC4=O)cn3)nc12 [Compound 779] | < 10 | ≥ 100 | < 10 | – | –
CO[C@H](C)c1cc2cnc(Nc3ccc(N4CCNCC4)nn3)nc2c(NC(C)C)n1 [Compound 217, (R)—N8-isopropyl-6-(1-methoxyethyl)-N2-(6-(piperazin-1-yl)pyridazin-3-yl)pyrido[3,4-d]pyrimidine-2,8-diamine] | – | – | 10 to 100 | < 10 | ≥ 100
CO[C@H](C)c1cc2cnc(Nc3cnc(N4CCNCC4)cn3)nc2c(NC(C)C)n1 [Compound 363] | – | – | 10 to 100 | < 10 | ≥ 100
CCNc1nc([C@@H](C)O)cc2cnc(Nc3ccc(CN4CCN(CCO)CC4)cn3)nc12 [Compound 843] | < 10 | ≥ 100 | 10 to 100 | – | –
CC(C)Nc1nc(C2(C)COC2)cc2cnc(Nc3ccc(N4CCNCC4)nn3)nc12 [Compound 879] | < 10 | ≥ 100 | < 10 | – | –
c1cc(N2CCNCC2)nnc1Nc1ncc2cc(C3CCOC3)nc(N[C@H]3CCCOC3)c2n1 (single isomer, unassigned) [Compound 938] | < 10 | ≥ 100 | 10 to 100 | – | –
CCC(O)c1cc2cnc(Nc3ccc(N4CCNCC4=O)cn3)nc2c(NC(C)C)n1 (stereo not shown) [Compound 1036] | < 10 | ≥ 100 | 10 to 100 | – | –
